Test results reported in article PMC9384988, “The TPR domain of PgaA is a multifunctional scaffold that binds PNAG and modulates PgaB-dependent polymer processing” (PLoS Pathogens, 2022).

How the values were obtained:
PgaA-32-220 = assay: ESI-MS binding test, PgaA-32-220; design: species or system E. coli; settings: sample partially degraded
Procedure: PgaA32-220 was analyzed using the SolariX 15 T FT-ICR mass spectrometer (Bruker-Daltonics, Billerica, MA), equipped with a dynamically harmonized ParaCell and nanoESI source. […] The instrumental parameters for these measurements were: glass capillary exit voltage (200 V); source drying gas (N2, 4 L/min and 120°C); deflector plate (220 V). The RF amplitude of the ion-funnels was 300 V peak-to-peak, and the applied voltages were 150 V and 6 V for funnels 1 and 2, respectively. The voltage of skimmer 1 was 30 V and the skimmer 2 voltage was 5 V. Accumulation time in the hexapole collision cell was 0.7 s; the time-of-flight was 2 ms. The operating pressure in UHV region was ~5×10^−10 mbar. Data acquisition was performed using the FtmsControl software (version 2.2). The time-domain signal, consisting of the sum of 25 transients, containing 2M data points per transient, was subjected to one zero-fill prior to Fourier-transform.

PgaA-32-367 = molecular target: T1, PgaA-32-367 (Escherichia coli, UniProt P69434); assay: Direct ESI-MS binding assay, PgaA-32-367; design: species or system E. coli; settings: 25°C and pH 7, direct ESI-MS assay; for Kd: read-out: Kd, TPR region 32–367
T1 construct: His6 (thrombin cleavable, pET28) (N); made in house; host or cells: E. coli BL21 CodonPlus
T1 sequence (P69434 32-367): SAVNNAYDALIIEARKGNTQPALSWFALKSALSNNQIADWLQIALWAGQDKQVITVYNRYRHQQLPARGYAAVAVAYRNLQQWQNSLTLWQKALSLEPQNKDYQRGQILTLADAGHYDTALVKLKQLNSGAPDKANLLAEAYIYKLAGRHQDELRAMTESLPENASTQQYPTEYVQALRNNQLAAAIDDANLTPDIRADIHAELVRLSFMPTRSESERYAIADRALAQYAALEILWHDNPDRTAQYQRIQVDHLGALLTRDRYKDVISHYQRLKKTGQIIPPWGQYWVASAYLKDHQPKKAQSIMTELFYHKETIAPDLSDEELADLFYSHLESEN
Procedure: (§1) Solutions of PgaA220-367 (5.7 μM) and PgaA32-367 (11.6 μM) were used for binding assay. […] Binding measurements were carried out in positive ion mode using a Synapt G2S ESI-Q-IMS-TOF mass spectrometer (Waters, Manchester, UK) equipped with nanoflow ESI (nanoESI) source. NanoESI was performed by applying a voltage of ~1 kV to a platinum wire inserted into the nanoESI tip, which was produced from a borosilicate glass capillary (1.0 mm o.d., 0.68 mm i.d.) pulled to ~5 μm o.d. using a P−1000 micropipette puller (Sutter Instruments, Novato, CA). The source temperature and gas flow rate was 60°C and 2 mL/min, respectively. The Cone, Trap and Transfer voltages were 20 V, 3 V and 1 V, respectively. MassLynx software (version 4.1) was used for data acquisition and processing.
(§2) The Kd for protein (P)—ligand (L) binding was calculated from the abundance ratio of L-bound to free P ions (i.e., R), measured by ESI-MS: R = Ab(PL)/Ab(P) = [PL]/[P], Kd = [P][L]/[PL] = [L]0/R—[P]0/(R+1), where [P]0 and [L]0 are initial concentrations of protein and ligand, correspondingly. Non-specific protein-ligand binding was corrected as published.

PgaA-220-367 = molecular target: T2, PgaA-220-367 (Escherichia coli, UniProt P69434); assay: Direct ESI-MS binding assay, PgaA-220-367; design: species or system E. coli; settings: 25°C and pH 7, direct ESI-MS assay; for Kd: read-out: Kd, TPR region 220–367
T2 construct: His6 (thrombin cleavable, pET28) (N); made in house; host or cells: E. coli BL21 CodonPlus (DE3)
T2 sequence (P69434 220-367): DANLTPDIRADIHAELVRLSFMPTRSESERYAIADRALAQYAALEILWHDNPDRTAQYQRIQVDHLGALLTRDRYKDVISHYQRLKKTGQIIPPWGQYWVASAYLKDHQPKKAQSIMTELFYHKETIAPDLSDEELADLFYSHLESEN
Procedure: as §1, §2

His-PgaA (PgaA-32-807) = molecular target: T3, His-PgaA (PgaA-32-807) (E. coli K-12, UniProt P69434 32-807)
T3 construct: also called His-PgaA-32-807; full-length PgaA; source: E. coli BL21: co-expressed with PgaB, in DDM extract of the lysate pellet (pull-down); expressed alone or with PgaB and purified (NiNTA, gel filtration, DDM); not shown: His6, N-terminal, kept
T3 sequence (looked up): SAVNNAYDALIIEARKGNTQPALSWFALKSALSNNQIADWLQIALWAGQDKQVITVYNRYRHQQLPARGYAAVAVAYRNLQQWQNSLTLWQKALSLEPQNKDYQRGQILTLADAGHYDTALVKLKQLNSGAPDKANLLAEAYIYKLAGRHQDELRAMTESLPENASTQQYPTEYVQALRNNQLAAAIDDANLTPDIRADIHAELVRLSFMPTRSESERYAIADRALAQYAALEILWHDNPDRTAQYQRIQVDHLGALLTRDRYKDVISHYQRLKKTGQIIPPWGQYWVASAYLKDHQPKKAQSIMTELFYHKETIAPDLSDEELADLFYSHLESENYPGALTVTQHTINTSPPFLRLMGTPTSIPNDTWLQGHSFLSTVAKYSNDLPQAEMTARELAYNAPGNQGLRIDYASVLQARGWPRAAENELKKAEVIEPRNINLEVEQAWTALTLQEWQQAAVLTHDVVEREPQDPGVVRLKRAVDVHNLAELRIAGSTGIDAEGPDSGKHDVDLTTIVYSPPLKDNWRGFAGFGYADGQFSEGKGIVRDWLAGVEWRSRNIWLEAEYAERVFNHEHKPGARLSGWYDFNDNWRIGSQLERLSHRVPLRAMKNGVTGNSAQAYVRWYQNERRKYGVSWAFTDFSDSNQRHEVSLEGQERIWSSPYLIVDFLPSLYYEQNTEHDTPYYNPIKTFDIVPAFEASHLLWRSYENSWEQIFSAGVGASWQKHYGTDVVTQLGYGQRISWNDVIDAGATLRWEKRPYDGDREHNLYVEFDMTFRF

[1] = Fluorescamine de-acetylation assay; assay type: biochemical; settings: 30 μM enzyme and 30 mM PNAG hexamer; fluorescamine readout
Procedure: To determine whether the modulation of enzyme activity might be a common theme for the TPR domain across synthase-dependent systems, we assayed the deacetylase and glycoside hydrolase activities of PgaB in the presence and absence of PgaA. As we used co-expression to obtain the complexes, a SDS PAGE gel of the purified solutions of PgaA, PgaB and PgaA/B complexes was analyzed to ensure that equal quantities of the protein/protein complex were used (Fig 2A). Consistent with previous published studies, PgaA and PgaB appear to form a 1:1 complex. The deacetylase activity was assessed using a fluorescamine-based assay with fully acetylated PNAG hexamers as the substrate. As fluorescamine detects the presence of primary amines, which are generated during the deacetylation of the PNAG oligosaccharide, this assay provides a direct readout of the deacetylation activity of PgaB. To assess the glycoside hydrolase activity, we used a biofilm disruption assay, which has been used previously to characterize PgaB’s glycosidase activity. In this assay, biofilms of Staphylococcus epidermidis strain SE801 were grown in 96 well plates for 24 h, at which point PgaB was added. After a further 2 h, the reaction was quenched, plates washes and the amount of adherent biofilm remaining quantified using crystal violet staining. […]

Molecule: CC(=O)N[C@H]1[C@H](OC[C@H]2O[C@@H](OC[C@H]3O[C@@H](OC[C@H]4O[C@@H](OC[C@H]5OC(O)[C@H](NC(C)=O)[C@@H](O)[C@@H]5O)[C@H](NC(C)=O)[C@@H](O)[C@@H]4O)[C@H](NC(C)=O)[C@@H](O)[C@@H]3O)[C@H](NC(C)=O)[C@@H](O)[C@@H]2O)O[C@H](CO)[C@@H](O)[C@@H]1O (stereo partly shown)
- binding to TPR region 32–220 (PgaA-32-220): No binding
- Kd (PgaA-32-367): 10000 µM
- Kd (PgaA-220-367): 1700 µM

Molecule: CC(=O)N[C@H]1[C@H](OC[C@H]2O[C@@H](OC[C@H]3O[C@@H](OC[C@H]4O[C@@H](OC[C@H]5OC(O)[C@H](NC(C)=O)[C@@H](O)[C@@H]5O)[C@H](NC(C)=O)[C@@H](O)[C@@H]4O)[C@H](N)[C@@H](O)[C@@H]3O)[C@H](NC(C)=O)[C@@H](O)[C@@H]2O)O[C@H](CO)[C@@H](O)[C@@H]1O (stereo partly shown) [(GlcNAc)2-GlcN-(GlcNAc)2]
- binding to TPR region 32–220 (PgaA-32-220): No binding
- Kd (PgaA-32-367): 2300 µM
- Kd (PgaA-220-367): 1300 µM

Molecule: CC(=O)N[C@H]1[C@H](O[C@H]2[C@@H](O)[C@@H](CO)O[C@@H](O[C@@H]([C@H](O)[C@@H](O)C=O)[C@H](O)CO)[C@@H]2O)O[C@H](CO)[C@@H](O)[C@@H]1O[C@@H]1O[C@H](CO)[C@H](O)[C@H](O)[C@H]1O[C@@H]1O[C@@H](C)[C@@H](O)[C@@H](O)[C@@H]1O [LNF1, lacto-N-fucopentaose, reference compound]
- Kd, TPR region 32–367 (PgaA-32-367): No binding
- Kd, TPR region 220–367 (PgaA-220-367): No binding

Molecule: PgaB-22-672 (soluble form of PgaB) (from UniProt P75906 22-672) (enzyme)
- fluorescamine-based deacetylation assay with PNAG hexamer, concentration of GlcN produced (PgaA+B, individually purified and mixed) (His-PgaA (PgaA-32-807)): 1290 µM

B1: PgaA: E. coli PgaA residues 32–807, TPR domain plus outer membrane porin (protein)
chain: SAVNNAYDALIIEARKGNTQPALSWFALKSALSNNQIADWLQIALWAGQDKQVITVYNRYRHQQLPARGYAAVAVAYRNLQQWQNSLTLWQKALSLEPQNKDYQRGQILTLADAGHYDTALVKLKQLNSGAPDKANLLAEAYIYKLAGRHQDELRAMTESLPENASTQQYPTEYVQALRNNQLAAAIDDANLTPDIRADIHAELVRLSFMPTRSESERYAIADRALAQYAALEILWHDNPDRTAQYQRIQVDHLGALLTRDRYKDVISHYQRLKKTGQIIPPWGQYWVASAYLKDHQPKKAQSIMTELFYHKETIAPDLSDEELADLFYSHLESENYPGALTVTQHTINTSPPFLRLMGTPTSIPNDTWLQGHSFLSTVAKYSNDLPQAEMTARELAYNAPGNQGLRIDYASVLQARGWPRAAENELKKAEVIEPRNINLEVEQAWTALTLQEWQQAAVLTHDVVEREPQDPGVVRLKRAVDVHNLAELRIAGSTGIDAEGPDSGKHDVDLTTIVYSPPLKDNWRGFAGFGYADGQFSEGKGIVRDWLAGVEWRSRNIWLEAEYAERVFNHEHKPGARLSGWYDFNDNWRIGSQLERLSHRVPLRAMKNGVTGNSAQAYVRWYQNERRKYGVSWAFTDFSDSNQRHEVSLEGQERIWSSPYLIVDFLPSLYYEQNTEHDTPYYNPIKTFDIVPAFEASHLLWRSYENSWEQIFSAGVGASWQKHYGTDVVTQLGYGQRISWNDVIDAGATLRWEKRPYDGDREHNLYVEFDMTFRF
modifications: left off: His6, N-terminal, kept
notes: E. coli PgaA residues 32–807, TPR domain plus outer membrane porin
- concentration of GlcN produced [1]: 73.8 ± 6.3 µM
